Results published in ChEMBL document CHEMBL1149176, “(2R)-2-ethylchromane-2-carboxylic acids: discovery of novel PPARalpha/gamma dual agonists as antihyperglycemic and hypolipidemic agents” (J Med Chem, 2004).

Tests used:
Cricetinae gen. sp. [1] = assay: In vivo triglyceride in hamsters at 3 mg/kg; assay type: functional, Cricetulus griseus
[2] = Bioavailability in rat (dose 2.0 mg/kg p.o.); assay type: ADME, organism-based; conditions: in vivo, po
[3] = Bioavailability in dog (p.o.) at 2.0 mpk; assay type: ADME, organism-based, Canis lupus familiaris; conditions: in vivo, po, 2 mg/kg
[4] = Longer half-life in rat (i.v.) at 0.5 mpk; assay type: ADME, organism-based; conditions: in vivo, iv, 0.5 mg/kg
Rattus norvegicus [5] = assay: Lower clearance in rat (i.v.) at 0.5 mpk; assay type: ADME, organism-based; conditions: in vivo, iv, 0.5 mg/kg
Canis familiaris [6] = assay: In vivo percent change in serum cholesterol in dogs at 3 mg/kg; assay type: functional, Canis lupus familiaris
Cricetinae gen. sp. [7] = assay: In vivo serum cholesterol in hamsters at 10 mg/kg; assay type: functional, Cricetulus griseus
Cricetinae gen. sp. [8] = assay: In vivo percent change in triglyceride in hamsters at 10 mg/kg; assay type: functional, Cricetulus griseus
[9] = Dose-normalized area under curve in monkey (p.o.) at 2.0 mpk; assay type: ADME; conditions: cercopithecidae, in vivo, po, 2 mg/kg
Cricetinae gen. sp. [10] = assay: In vivo percent change in serum cholesterol in hamsters at 3 mg/kg; assay type: functional, Cricetulus griseus
[11] = Lower clearance in monkey (i.v.) at 0.5 mpk; assay type: ADME, organism-based; conditions: cercopithecidae, in vivo, iv, 0.5 mg/kg
[12] = Longer half-life in dog (i.v.) at 0.5 mpk; assay type: ADME, organism-based, Canis lupus familiaris; conditions: in vivo, iv, 0.5 mg/kg
Mesocricetus auratus = assay: In vivo serum cholesterol in Golden Syrian hamsters at 3 mg/kg
Canis familiaris [13] = assay: Dose-normalized area under curve in dog (p.o.) at 2.0 mpk; assay type: ADME, organism-based, Canis lupus familiaris; conditions: in vivo, po, 2 mg/kg
[14] = molecular target: T1, Peroxisome proliferator-activated receptor delta (Homo sapiens, UniProt Q03181)
T1 sequence (Q03181 whole entry): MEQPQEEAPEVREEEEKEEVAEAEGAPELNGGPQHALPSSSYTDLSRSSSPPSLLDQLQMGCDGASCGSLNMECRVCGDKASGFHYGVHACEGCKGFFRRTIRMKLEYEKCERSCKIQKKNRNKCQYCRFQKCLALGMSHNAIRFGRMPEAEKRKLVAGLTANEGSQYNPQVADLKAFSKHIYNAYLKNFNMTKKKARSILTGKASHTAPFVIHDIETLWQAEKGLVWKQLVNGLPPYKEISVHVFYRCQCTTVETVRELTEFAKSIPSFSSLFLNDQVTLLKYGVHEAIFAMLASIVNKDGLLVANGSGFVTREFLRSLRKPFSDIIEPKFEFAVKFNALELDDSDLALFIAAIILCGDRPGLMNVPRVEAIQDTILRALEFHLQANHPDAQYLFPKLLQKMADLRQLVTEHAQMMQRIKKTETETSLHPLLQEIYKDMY

[15] = Longer half-life in rat (p.o.) at 2.0 mpk; assay type: ADME, organism-based; conditions: in vivo, po, 2 mg/kg
Cricetinae gen. sp. [16] = assay: In vivo percent change in serum cholesterol in hamsters at 10 mg/kg; assay type: functional, Cricetulus griseus
[17] = Longer half-life in monkey (i.v.) at 0.5 mpk; assay type: ADME, organism-based; conditions: cercopithecidae, in vivo, iv, 0.5 mg/kg
Rattus norvegicus [18] = assay: Dose-normalized area under curve in rat (p.o.) at 2.0 mpk; assay type: ADME, organism-based; conditions: in vivo, po, 2 mg/kg
Cricetinae gen. sp. [19] = assay: In vivo triglyceride in hamsters at 10 mg/kg; assay type: functional, Cricetulus griseus
[20] = In vitro transcriptional activation by human PPAR gamma Gal4 chimera
Cricetinae gen. sp. [21] = assay: In vivo percent change in triglyceride in hamsters at 3 mg/kg; assay type: functional, Cricetulus griseus
[22] = molecular target: T2, Peroxisome proliferator-activated receptor gamma (Mus musculus, UniProt P37238); assay: In vitro transcriptional activation by PPAR gamma
T2 sequence (P37238 whole entry): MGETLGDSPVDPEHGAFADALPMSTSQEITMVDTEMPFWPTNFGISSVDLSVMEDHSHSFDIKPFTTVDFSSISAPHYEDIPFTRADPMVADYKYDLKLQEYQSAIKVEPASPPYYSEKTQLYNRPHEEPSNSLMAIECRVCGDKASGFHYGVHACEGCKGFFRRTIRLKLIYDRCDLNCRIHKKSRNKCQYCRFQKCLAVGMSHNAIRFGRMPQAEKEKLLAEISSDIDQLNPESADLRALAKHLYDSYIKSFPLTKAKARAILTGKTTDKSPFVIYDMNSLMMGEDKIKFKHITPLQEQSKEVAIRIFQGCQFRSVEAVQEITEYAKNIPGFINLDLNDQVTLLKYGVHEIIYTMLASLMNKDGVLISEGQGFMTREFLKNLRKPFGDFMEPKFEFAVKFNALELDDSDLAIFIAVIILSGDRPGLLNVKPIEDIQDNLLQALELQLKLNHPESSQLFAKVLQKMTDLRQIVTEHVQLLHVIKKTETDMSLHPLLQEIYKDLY

[23] = Bioavailability in monkey (p.o.) at 2.0 mpk; assay type: ADME, organism-based; conditions: cercopithecidae, in vivo, po, 2 mg/kg
Canis familiaris [24] = assay: Lower clearance in dog (i.v.) at 0.5 mpk; assay type: ADME, organism-based, Canis lupus familiaris; conditions: in vivo, iv, 0.5 mg/kg
Rattus norvegicus [25] = assay: Dose-normalized area under curve in rat (i.v.) at 0.5 mpk; assay type: ADME, organism-based; conditions: in vivo, iv, 0.5 mg/kg
Canis familiaris [26] = assay: In vivo percent change in serum cholesterol in dogs at 1 mg/kg; assay type: functional, Canis lupus familiaris

CC[C@]1(C(=O)O)CCc2ccc(OCCCOc3ccc(Oc4ccc(F)cc4)cc3Cl)cc2O1
Activity (Cricetinae gen. sp. [1]): 222 mg/dL | bioavailability [2]: 48% | bioavailability [3]: 92% | half-life [4]: 4.6 h | Clp (Rattus norvegicus [5]): 3.4 mL/min/kg | Change (Canis familiaris [6]): -31.6% | Activity (Cricetinae gen. sp. [7]): 65 mg/dL | Change (Cricetinae gen. sp. [8]): -48% | nAUC [9]: 1.7 µM·h | Change (Cricetinae gen. sp. [10]): -21% | Clp [11]: 8.6 mL/min/kg | half-life [12]: 10 h | Activity (Mesocricetus auratus): 85 mg/dL | nAUC (Canis familiaris [13]): 9.2 µM·h | IC50 [14]: > 15000 nM | half-life [15]: 3.7 h | Change (Cricetinae gen. sp. [16]): -40% | half-life [17]: 3.5 h | nAUC (Rattus norvegicus [18]): 4.8 µM·h | Activity (Cricetinae gen. sp. [19]): 159 mg/dL | EC50 [20]: 140 nM | Change (Cricetinae gen. sp. [21]): -27% | EC50 [22]: 150 nM | bioavailability [23]: 43% | Clp (Canis familiaris [24]): 3.5 mL/min/kg | nAUC (Rattus norvegicus [25]): 10 µM·h | Change (Canis familiaris [26]): -23.3%
